According to PubChem BioAssay AID248 (DTP/NCI, 2004):
Where “and” joins values, the source holds several entries; their conditions need not be identical. Equal values may be shown once. Inconclusive results and toxic doses are left out. No stated cut-off is given here; in the data, active means T/C of 150% or more; inactive means T/C below 125%.

System: L1210 leukemia ip in BDF1 mice, survival T/C
Assay: NCI In Vivo Anticancer Drug Screen. Data for tumor model L1210 Leukemia (intraperitoneal) in B6D2F1 (BDF1) mice
Conditions: endpoint: mean survival time, higher = longer survival
How it was run: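 Mice bearing the transplanted tumor received compound or vehicle. Survival of the treated group was divided by that of the vehicle-treated control group to give the ratio.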

[1] = dose: 200.0 mg/kg/injection, schedule: Q01DX009 (ip), vehicle: saline
[2] = dose: 100.0 mg/kg/injection, schedule: Q01DX009 (ip), vehicle: Klucel (hydroxypropylcellulose) (HPC)
[3] = dose: 200.0 mg/kg/injection, schedule: Q01DX009 (ip), vehicle: Klucel (hydroxypropylcellulose) (HPC)
[4] = dose: 400.0 mg/kg/injection, schedule: Q01DX009 (ip), vehicle: Klucel (hydroxypropylcellulose) (HPC)
[5] = dose: 12.5 mg/kg/injection, schedule: Q04DX002 (ip), vehicle: Klucel (hydroxypropylcellulose) (HPC)
[6] = dose: 25.0 mg/kg/injection, schedule: Q04DX002 (ip), vehicle: Klucel (hydroxypropylcellulose) (HPC)
[7] = dose: 100.0 mg/kg/injection, schedule: Q04DX003 (ip), vehicle: other
[8] = dose: 200.0 mg/kg/injection, schedule: Q04DX003 (ip), vehicle: other
[9] = dose: 400.0 mg/kg/injection, schedule: Q04DX003 (ip), vehicle: other
[10] = dose: 100.0 mg/kg/injection, schedule: Q01DX009 (ip), vehicle: saline with Tween-80
[11] = dose: 200.0 mg/kg/injection, schedule: Q01DX009 (ip), vehicle: saline with Tween-80
[12] = dose: 400.0 mg/kg/injection, schedule: Q01DX009 (ip), vehicle: saline with Tween-80
[13] = dose: 100.0 mg/kg/injection, schedule: Q04DX003 (ip), vehicle: saline with Tween-80
[14] = dose: 200.0 mg/kg/injection, schedule: Q04DX003 (ip), vehicle: saline with Tween-80
[15] = dose: 100.0 mg/kg/injection, schedule: Q01DX001 (ip), vehicle: saline
[16] = dose: 200.0 mg/kg/injection, schedule: Q01DX001 (ip), vehicle: saline
[17] = dose: 400.0 mg/kg/injection, schedule: Q01DX001 (ip), vehicle: saline
[18] = dose: 100.0 mg/kg/injection, schedule: Q04DX002 (ip), vehicle: saline with Tween-80
[19] = dose: 200.0 mg/kg/injection, schedule: Q04DX002 (ip), vehicle: saline with Tween-80
[20] = dose: 400.0 mg/kg/injection, schedule: Q04DX003 (ip), vehicle: saline with Tween-80
[21] = dose: 100.0 mg/kg/injection, schedule: Q01DX001 (ip), vehicle: carboxymethylcellulose (CMC)
[22] = dose: 200.0 mg/kg/injection, schedule: Q01DX001 (ip), vehicle: carboxymethylcellulose (CMC)
[23] = dose: 400.0 mg/kg/injection, schedule: Q01DX001 (ip), vehicle: carboxymethylcellulose (CMC)
[24] = dose: 100.0 mg/kg/injection, schedule: Q01DX001 (ip), vehicle: saline with Tween-80
[25] = dose: 200.0 mg/kg/injection, schedule: Q01DX001 (ip), vehicle: saline with Tween-80
[26] = dose: 400.0 mg/kg/injection, schedule: Q01DX001 (ip), vehicle: saline with Tween-80

Measured: T/C

CC1(C#N)CCC2c3ccccc3CCC2C1=O (configuration not stated)
inactive: dose: 100.0 mg/kg/injection, schedule: Q01DX009 (ip), vehicle: saline 95 % of control | dose: 100.0 mg/kg/injection, schedule: Q04DX003 (ip), vehicle: saline 100 % of control | [1] 96 % of control | dose: 200.0 mg/kg/injection, schedule: Q04DX003 (ip), vehicle: saline 98 % of control | dose: 400.0 mg/kg/injection, schedule: Q01DX009 (ip), vehicle: saline 106 % of control | dose: 400.0 mg/kg/injection, schedule: Q04DX003 (ip), vehicle: saline 97 % of control

COc1ccc(/C=N/NC(=O)C(O)c2ccccc2)cc1 (configuration not stated)
inactive: [2] 92 % of control | [3] 99 % of control | [4] 86 % of control

C/C(=N/NC(=S)Nc1cc(I)ccc1C)c1cc(C)ccc1O
inactive: [5] 97 % of control | [6] 102 % of control | dose: 50.0 mg/kg/injection, schedule: Q04DX002 (ip), vehicle: Klucel (hydroxypropylcellulose) (HPC) 94 % of control

CSc1ccc(C(=O)c2ccc(SC)cc2)cc1
inactive: [2] 98 % of control | [3] 98 % of control | [4] 95 % of control

CNc1ccc(OC)cc1
inactive: dose: 100.0 mg/kg/injection, schedule: Q01DX009 (ip), vehicle: other 95 % of control | [7] 101 % of control | dose: 200.0 mg/kg/injection, schedule: Q01DX009 (ip), vehicle: other 111 % of control | [8] 101 % of control | dose: 400.0 mg/kg/injection, schedule: Q01DX009 (ip), vehicle: other 124 % of control | [9] 104 % of control

CC1=C(C)Cc2c(-c3ccc(Cl)cc3)oc(-c3ccc(Cl)cc3)c2C1
inactive: dose: 100.0 mg/kg/injection, schedule: Q04DX003 (ip), vehicle: Klucel (hydroxypropylcellulose) (HPC) 100 % of control | dose: 200.0 mg/kg/injection, schedule: Q04DX003 (ip), vehicle: Klucel (hydroxypropylcellulose) (HPC) 97 % of control | dose: 400.0 mg/kg/injection, schedule: Q04DX003 (ip), vehicle: Klucel (hydroxypropylcellulose) (HPC) 94 % of control

O=C(CNC(=O)c1ccccc1)N/N=C/c1c(O)ccc2ccccc12
inactive: [10] 95 % of control | [11] 95 % of control | [12] 97 % of control

CCCCN(C(C)(C)C(SSSC(c1ccc(Cl)cc1)C(C)(C)N(CCCC)S(C)(=O)=O)c1ccc(Cl)cc1)S(C)(=O)=O (configuration not stated)
inactive: [10] 96 % of control | [11] 86 % of control

CC(=O)c1ccc(C(=O)O)cc1
inactive: dose: 50.0 mg/kg/injection, schedule: Q01DX009 (ip), vehicle: saline with Tween-80 87 % of control | [10] 115 % of control | [11] 94 % of control

CC(=O)Nc1ccc2ccccc2c1-c1c(N)ccc2ccccc12
inactive: dose: 100.0 mg/kg/injection, schedule: Q01DX009 (ip), vehicle: gum acacia 91 % of control | dose: 100.0 mg/kg/injection, schedule: Q04DX003 (ip), vehicle: gum acacia 97 % of control | dose: 200.0 mg/kg/injection, schedule: Q01DX009 (ip), vehicle: gum acacia 96 % of control | dose: 200.0 mg/kg/injection, schedule: Q04DX003 (ip), vehicle: gum acacia 92 % of control | dose: 400.0 mg/kg/injection, schedule: Q01DX009 (ip), vehicle: gum acacia 99 % of control | dose: 400.0 mg/kg/injection, schedule: Q04DX003 (ip), vehicle: gum acacia 101 % of control

C=C(Cl)CSCCCS
inactive: dose: 100.0 mg/kg/injection, schedule: Q01DX009 (ip), vehicle: acetone 108 % of control | dose: 130.0 mg/kg/injection, schedule: Q01DX009 (ip), vehicle: saline 116 % of control | dose: 200.0 mg/kg/injection, schedule: Q01DX009 (ip), vehicle: acetone 123 % of control | [1] 120 % of control | dose: 300.0 mg/kg/injection, schedule: Q01DX009 (ip), vehicle: saline 120 % of control

O=C(Nc1ccc(Cl)cc1)Nc1ccc(Cl)cc1
inactive: [13] 91 % of control | [14] 91 % of control

OCCN(CCO)c1nnc(-c2ccccc2)o1
inactive: [15] 102 % of control | [16] 94 % of control and 90 % of control | [17] 101 % of control and 91 % of control

CN(C)c1ccc(/C=N/NC(=S)Nc2ccccc2)cc1
inactive: [2] 109 % of control | [3] 98 % of control | [4] 94 % of control

CC1(C)C2CCC1(C)C(C(=O)C(F)(F)F)C2=O.CC1(C)C2CCC1(C)C(C(=O)C(F)(F)F)C2=O.[Mn] (configuration not stated)
inactive: dose: 50.0 mg/kg/injection, schedule: Q04DX002 (ip), vehicle: saline with Tween-80 94 % of control | [18] 98 % of control | [19] 98 % of control

Nc1nc(N)c2c(n1)CCCC2
inactive: dose: 12.5 mg/kg/injection, schedule: Q04DX003 (ip), vehicle: saline with Tween-80 95 % of control | dose: 25.0 mg/kg/injection, schedule: Q04DX003 (ip), vehicle: saline with Tween-80 93 % of control | dose: 50.0 mg/kg/injection, schedule: Q04DX003 (ip), vehicle: saline with Tween-80 91 % of control

O=C(c1ccccc1)C(C(O)CCl)C(O)(C(F)(F)F)C(F)(F)F (configuration not stated)
inactive: [13] 89 % of control | [14] 93 % of control | [20] 91 % of control

CCCCCC(NC(=O)CCl)C(=O)O (configuration not stated)
inactive: [2] 91 % of control | [3] 96 % of control | [4] 92 % of control

CCNC(=O)NCc1cc(C)ccc1C
inactive: dose: 100.0 mg/kg/injection, schedule: Q04DX002 (ip), vehicle: Klucel (hydroxypropylcellulose) (HPC) 111 % of control | dose: 200.0 mg/kg/injection, schedule: Q04DX002 (ip), vehicle: Klucel (hydroxypropylcellulose) (HPC) 108 % of control | dose: 400.0 mg/kg/injection, schedule: Q04DX002 (ip), vehicle: Klucel (hydroxypropylcellulose) (HPC) 108 % of control

Cc1cc(=O)oc2c1ccc1c(O)cccc12
inactive: [21] 103 % of control | [22] 97 % of control | [23] 94 % of control

CNC(=S)N/N=C(\c1ccccc1)c1ccccn1
inactive: [24] 95 % of control | [10] 100 % of control | [13] 104 % of control | [25] 106 % of control | [11] 102 % of control | [14] 95 % of control | [26] 104 % of control | [12] 102 % of control | [20] 98 % of control

CC(=NC(CC(C)C)C(=O)O)NC(CC(C)C)C(=O)O (configuration not stated)
inactive: [2] 101 % of control | [3] 110 % of control | [4] 103 % of control

O=C1C=CC(=O)C2C1C1(Cl)CC2(Cl)C(Cl)=C1Cl (configuration not stated)
inactive: dose: 6.25 mg/kg/injection, schedule: Q04DX002 (ip), vehicle: Klucel (hydroxypropylcellulose) (HPC) 100 % of control | [5] 95 % of control | [6] 100 % of control and 108 % of control

NCC1OC(n2cnc3c(N)ncnc32)C(O)C1O (configuration not stated)
inactive: dose: 50.0 mg/kg/injection, schedule: Q01DX001 (ip), vehicle: carboxymethylcellulose (CMC) 98 % of control | [21] 102 % of control | [22] 107 % of control | [23] 109 % of control

Cc1c2oc3c(C)ccc(C(=O)OCCN4CCCCC4)c3nc-2c(C(=O)OCCN2CCCCC2)c(N)c1=O
inactive: [18] 113 % of control | [19] 98 % of control

O=[N+]([O-])c1ccc(-c2cc3ccccc3nc2Cl)cc1
inactive: [15] 92 % of control | [16] 90 % of control | [17] 101 % of control

O=C(OCC(O)C1OC(COC(=O)c2ccccc2)C1O)c1ccccc1 (configuration not stated)
inactive: [24] 101 % of control | [25] 97 % of control | [26] 97 % of control

Cc1cc2c(c(=O)n1C)COC2=O
inactive: [7] 100 % of control | [8] 100 % of control | [9] 98 % of control

ON=c1c2ccccc2c2ccccc2c2ccccc12
inactive: dose: 75.0 mg/kg/injection, schedule: Q04DX002 (ip), vehicle: gum acacia 109 % of control | dose: 150.0 mg/kg/injection, schedule: Q04DX002 (ip), vehicle: gum acacia 105 % of control | dose: 300.0 mg/kg/injection, schedule: Q04DX002 (ip), vehicle: gum acacia 105 % of control
